Results as given in PMC9161374 (Science Translational Medicine, 2022).
Values joined by “and” are separate entries in the source; they are usually repeats but may differ in a detail not shown here. Identical values can stand only once. Like-named read-outs stand apart in the source and are kept apart here.

Tests used:
SARS-CoV-2 Delta variant [1] = assay type: in vivo, K18-hACE2 mice; conditions: for lung virus titers in plaque assays: ATV006 250 or 100 mg/kg, EIDD-2801 500 mg/kg
[2] = system: SARS-CoV-2 (Omicron, B.1.1.529)
SARS-CoV-2 Delta variant [3] = assay type: in vivo, K18-hACE2 mice; conditions: for % Initial weight / nucleocapsid gRNA copies/ μL / Log10 (FFU/g): individual animals; for % Initial weight: Fig.6B; for nucleocapsid gRNA copies/ μL: Fig.6C; for Log10 (FFU/g): Fig.6D
[4] = system: SARS-CoV-2 (Delta, B.1.617.2); test: microbe, parasite or virus in culture; assay type: cell-based

CC(C)C(=O)OC[C@H]1O[C@@](C#N)(c2ccc3c(N)ncnn23)[C@H](O)[C@@H]1O [ATV006]
lung virus titers in plaque assays (SARS-CoV-2 Delta variant [1]; […]): below the limit of detection
Ccl2 transcript, Vehicle/ATV006 fold change + standard error of the mean (SARS-CoV-2 Delta variant [1]; mouse, in vivo): 24.69±25.14
Cxcl10 transcript, Vehicle/ATV006 fold change + standard error of the mean (SARS-CoV-2 Delta variant [1]; mouse, in vivo): 43.19±20.74
Ifnb transcript, Vehicle/ATV006 fold change + standard error of the mean (SARS-CoV-2 Delta variant [1]; mouse, in vivo): 5.85±4.59
Ifng transcript, Vehicle/ATV006 fold change + standard error of the mean (SARS-CoV-2 Delta variant [1]; mouse, in vivo): 25.56±17.77
Il1β transcript, Vehicle/ATV006 fold change + standard error of the mean (SARS-CoV-2 Delta variant [1]; mouse, in vivo): 0.66±0.01
Il6 transcript, Vehicle/ATV006 fold change + standard error of the mean (SARS-CoV-2 Delta variant [1]; mouse, in vivo): 3.14±2.37
lung pathology (histopathology) (SARS-CoV-2 Delta variant [1]; mouse, in vivo): reduced evidence of lung pathology
lung viral RNA compared to the control (SARS-CoV-2 Delta variant [1]; mouse, in vivo): significantly reducing viral RNA
spike (S) protein of SARS-CoV-2 in lungs, immunohistochemistry (SARS-CoV-2 Delta variant [1]; mouse, in vivo): hardly detectable
survival (SARS-CoV-2 Delta variant [1]; prophylactic dosing, orally once daily, […]): prevent the death
fold potency improvement [2]: > 12 fold
therapeutic index (CC50/EC50) [2]: 1207.55
% Initial weight (SARS-CoV-2 Delta variant [3]; 10mg/kg, 0d): 100%
% Initial weight (SARS-CoV-2 Delta variant [3]; 10mg/kg, 1d): 101.648% and 100.759% and 96.0784% and 96.7539% and 101.529%
% Initial weight (SARS-CoV-2 Delta variant [3]; 10mg/kg, 2d): 101.923% and 99.2405% and 97.0588% and 94.7644% and 103.824%
% Initial weight (SARS-CoV-2 Delta variant [3]; 10mg/kg, 3d): 98.9011% and 98.7342% and 96.5686% and 95.0262% and 104.706%
nucleocapsid gRNA copies/ μL (SARS-CoV-2 Delta variant [3]; 10mg/kg): 146414 copies/ μL and 275440 copies/ μL and 232362 copies/ μL and 312910 copies/ μL and 80285.6 copies/ μL
% Initial weight (SARS-CoV-2 Delta variant [3]; 30mg/kg, 0d): 100%
% Initial weight (SARS-CoV-2 Delta variant [3]; 30mg/kg, 1d): 102.538% and 104.147% and 99.7354% and 98.4143% and 100.606%
% Initial weight (SARS-CoV-2 Delta variant [3]; 30mg/kg, 2d): 101.015% and 104.987% and 97.619% and 97.6982% and 97.3539%
% Initial weight (SARS-CoV-2 Delta variant [3]; 30mg/kg, 3d): 101.777% and 105.249% and 100% and 99.7442% and 101.433%
nucleocapsid gRNA copies/ μL (SARS-CoV-2 Delta variant [3]; 30mg/kg): 13248.7 copies/ μL and 53687.7 copies/ μL and 90173.6 copies/ μL and 4602.2 copies/ μL and 1089.53 copies/ μL
Log10 (FFU/g) (SARS-CoV-2 Delta variant [3]; 30mg/kg): 285 FFU/g and 11142.9 FFU/g and 1428.57 FFU/g
% Initial weight (SARS-CoV-2 Delta variant [3]; 80mg/kg, 0d): 100%
% Initial weight (SARS-CoV-2 Delta variant [3]; 80mg/kg, 1d): 98.0198% and 99.4949% and 101.272% and 98.5163% and 99.5238%
% Initial weight (SARS-CoV-2 Delta variant [3]; 80mg/kg, 2d): 101.98% and 95.9596% and 100% and 98.635% and 104.762%
% Initial weight (SARS-CoV-2 Delta variant [3]; 80mg/kg, 3d): 103.96% and 97.3232% and 99.6438% and 102.077% and 105.357%
nucleocapsid gRNA copies/ μL (SARS-CoV-2 Delta variant [3]; 80mg/kg): 1775.52 copies/ μL and 4114.3 copies/ μL and 2639.93 copies/ μL and 10494.5 copies/ μL and 13845.3 copies/ μL
Log10 (FFU/g) (SARS-CoV-2 Delta variant [3]; 80mg/kg): 285 FFU/g
% Initial weight (SARS-CoV-2 Delta variant [3]; 150mg/kg, 0d): 100%
% Initial weight (SARS-CoV-2 Delta variant [3]; 150mg/kg, 1d): 98.25% and 98.7147% and 97.1922% and 101.765% and 97.8241%
% Initial weight (SARS-CoV-2 Delta variant [3]; 150mg/kg, 2d): 98.35% and 100% and 98.2721% and 105.229% and 95.8333%
% Initial weight (SARS-CoV-2 Delta variant [3]; 150mg/kg, 3d): 97.75% and 97.4293% and 97.1922% and 107.516% and 97.4537%
nucleocapsid gRNA copies/ μL (SARS-CoV-2 Delta variant [3]; 150mg/kg): 3137.57 copies/ μL and 1055.82 copies/ μL and 1750.74 copies/ μL and 2116.43 copies/ μL and 8855.34 copies/ μL
Log10 (FFU/g) (SARS-CoV-2 Delta variant [3]; 150mg/kg): 285 FFU/g
Viral titer in lungs (SARS-CoV-2 Delta variant [3]; mouse, in vivo): reduced below the detection limit
lung histopathology (SARS-CoV-2 Delta variant [3]; mouse, in vivo): alleviated the symptoms in the lungs
viral load in the lungs (SARS-CoV-2 Delta variant [3]; mouse, in vivo): reduced viral load in the lungs
fold potency improvement [4]: > 4 fold

CC(C)C(=O)OC[C@H]1O[C@@H](n2ccc(NO)nc2=O)[C@H](O)[C@@H]1O [EIDD-2801, molnupiravir, reference compound]
lung virus titers in plaque assays (SARS-CoV-2 Delta variant [1]; […]): below the limit of detection

N#C[C@@]1(c2ccc3c(N)ncnn23)O[C@H](CO)[C@@H](O)[C@H]1O [GS-441524, reference compound]
nucleocapsid gRNA copies/ μL (SARS-CoV-2 Delta variant [3]; 80mg/kg): 3072139 copies/ μL and 3630875 copies/ μL and 3484205 copies/ μL and 3410466 copies/ μL and 4171196 copies/ μL
Log10 (FFU/g) (SARS-CoV-2 Delta variant [3]; 80mg/kg): 488571 FFU/g and 702857 FFU/g and 351429 FFU/g and 720000 FFU/g and 531429 FFU/g
nucleocapsid gRNA copies/ μL (SARS-CoV-2 Delta variant [3]; 150mg/kg): 3129847 copies/ μL and 270812 copies/ μL and 4369083 copies/ μL and 2646326 copies/ μL and 9650757 copies/ μL
Log10 (FFU/g) (SARS-CoV-2 Delta variant [3]; 150mg/kg): 342857 FFU/g and 368571 FFU/g and 531429 FFU/g and 360000 FFU/g and 420000 FFU/g
Viral titer in lungs (SARS-CoV-2 Delta variant [3]; mouse, in vivo): did not inhibit virus replication
lung histopathology (SARS-CoV-2 Delta variant [3]; mouse, in vivo): multiple sites of injury and inflammatory cell infiltration
